pIC50: −log10 of the molar value. Like-named read-outs stand apart in the source and are kept apart here. Marks after values point to notes of the source that are not given here.
Tests used:
GlyT1 [1] = biological target: T1, GlyT1 (Homo sapiens, UniProt P48067); test: Selectivity test against GlyT1 transporter, two-electrode voltage clamp electrophysiology; assay type: cell-based
T1 construct: expressed in transfected cells
T1 sequence (P48067 1-706): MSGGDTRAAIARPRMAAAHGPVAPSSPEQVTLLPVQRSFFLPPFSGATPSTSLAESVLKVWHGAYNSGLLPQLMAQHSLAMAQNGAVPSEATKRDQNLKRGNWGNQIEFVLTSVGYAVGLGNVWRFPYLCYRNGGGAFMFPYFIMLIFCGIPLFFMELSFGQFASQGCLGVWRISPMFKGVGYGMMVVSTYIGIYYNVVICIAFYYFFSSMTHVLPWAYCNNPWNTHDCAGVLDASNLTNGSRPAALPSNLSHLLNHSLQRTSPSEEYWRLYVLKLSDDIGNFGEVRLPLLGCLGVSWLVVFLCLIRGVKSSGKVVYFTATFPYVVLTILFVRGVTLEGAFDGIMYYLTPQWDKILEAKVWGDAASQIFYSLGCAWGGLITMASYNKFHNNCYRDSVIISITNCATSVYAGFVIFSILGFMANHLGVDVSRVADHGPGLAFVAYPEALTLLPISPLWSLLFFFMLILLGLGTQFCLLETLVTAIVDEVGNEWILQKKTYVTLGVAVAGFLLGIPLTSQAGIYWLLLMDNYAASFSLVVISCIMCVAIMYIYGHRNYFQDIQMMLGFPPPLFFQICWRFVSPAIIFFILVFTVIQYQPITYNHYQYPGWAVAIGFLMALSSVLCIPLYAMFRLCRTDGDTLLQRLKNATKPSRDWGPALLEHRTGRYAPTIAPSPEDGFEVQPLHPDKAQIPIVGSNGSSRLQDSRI
From the text: The lipid inhibitors described previously contain 18 carbon acyl tails with a cis-double bond in the Δ9 position (i.e., nine bonds from the amide linkage to the amino acid head group), and penetration of the lipid tails into the allosteric site appears to be a critical determinant of inhibitory activity. To investigate the effect of tail length on GlyT2 inhibitory activity, we synthesized D- and L-lysine–based inhibitors with truncated tails. Double bonds were maintained in the Δ9 position, and overall chain lengths were reduced to C16 or C14 (C16ω7-Lys and C14ω5-Lys, respectively). The chemical structures of these new lipids are shown in Figure 1, and their synthesis and characterization are described in the Supporting information section. Newly synthesized acyl lysine analogs were then tested against GlyT2 and also tested for selectivity by testing against the closely related GlyT1 transporter using two-electrode voltage clamp electrophysiology (see Table 1 for inhibitory data).
(§1) GlyT2 is electrogenic, allowing activation to be measured via the two-electrode voltage clamp technique. Oocytes were voltage clamped at −60 mV, and whole-cell currents generated by the substrate were recorded with a Geneclamp 500 amplifier (Axon Instruments), digitized by a Powerlab 2/20 chart recorder (ADInstruments). LabChart version 8 software (ADInstruments, Axon Instruments) was used to visualize and process current traces. Recordings were performed in frog Ringer's solution. Oocytes were placed in an oval-shaped bath with a volume of 0.3 ml, with laminar flow around the oocyte at a rate of 12 ml min^−1 under gravity feed.
(§2) Each of the synthesized acyl-lysine compounds were first tested for their inhibitory activity by coapplying the analogs with 30 μM glycine and assessing their ability to reduce glycine transport currents. Increasing concentrations of each acyl-lysine inhibitor were applied to generate concentration response curves, from which IC50 values and percent maximal inhibition values were calculated.

[2] = biological target: T2, human glycine transporter 2 (GlyT2 or SLC6A5) (Homo sapiens, UniProt Q9Y345); test: Inhibition of glycine transport currents, two-electrode voltage clamp in oocytes expressing WT GlyT2; assay type: cell-based; conditions: for % Maximal inhibition / pIC50: GlyT2; for pIC50: 30 μM glycine, 95% confidence interval in brackets; for Fold less potent than the corresponding L-isomer: GlyT2 IC50, D-isomer versus L-isomer
T2 construct: expressed in transfected cells; host or cells: Xenopus laevis oocytes injected with cRNA
T2 sequence (Q9Y345 1-797): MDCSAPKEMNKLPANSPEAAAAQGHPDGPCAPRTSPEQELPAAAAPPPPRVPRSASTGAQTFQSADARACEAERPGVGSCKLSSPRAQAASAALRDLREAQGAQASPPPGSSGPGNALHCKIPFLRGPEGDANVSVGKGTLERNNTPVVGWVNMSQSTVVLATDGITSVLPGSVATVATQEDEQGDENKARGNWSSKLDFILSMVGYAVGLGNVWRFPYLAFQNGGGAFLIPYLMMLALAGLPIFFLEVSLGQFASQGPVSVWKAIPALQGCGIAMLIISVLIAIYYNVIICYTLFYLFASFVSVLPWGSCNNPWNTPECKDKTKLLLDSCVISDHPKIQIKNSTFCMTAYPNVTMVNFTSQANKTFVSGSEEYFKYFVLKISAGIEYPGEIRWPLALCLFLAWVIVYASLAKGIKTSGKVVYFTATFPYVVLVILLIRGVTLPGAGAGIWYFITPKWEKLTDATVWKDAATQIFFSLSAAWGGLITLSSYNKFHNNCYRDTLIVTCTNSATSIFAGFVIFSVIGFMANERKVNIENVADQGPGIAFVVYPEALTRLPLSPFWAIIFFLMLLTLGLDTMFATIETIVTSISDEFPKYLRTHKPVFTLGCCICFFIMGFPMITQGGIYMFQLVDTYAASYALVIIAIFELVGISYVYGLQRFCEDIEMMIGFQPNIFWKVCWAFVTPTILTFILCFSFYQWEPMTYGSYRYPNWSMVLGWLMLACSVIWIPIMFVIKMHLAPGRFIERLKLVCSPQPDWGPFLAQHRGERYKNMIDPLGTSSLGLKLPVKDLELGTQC
Method: All N-acyl amino acids were synthesized as previously described ([13]). See Supporting Information for full details. Stock solutions of 10 mg ml^−1 of N-acyl amino acids were dissolved in dimethyl sulfoxide and diluted in frog Ringer's solution (96 mM NaCl, 2 mM KCl, 1 mM MgCl2, 1.8 mM CaCl2, 5 mM Hepes, pH 7.5) to desired concentrations. Final solutions contained 0.0025% dimethyl sulfoxide, a concentration that had no effect on transporter or receptor function.
Human GlyT2a WT complementary DNA was subcloned into the plasmid oocyte transcription vector. The amplified GlyT2/plasmid oocyte transcription vector product was then transformed in Escherichia coli cells and subsequently purified using the PureLink Quick Plasmid Miniprep Kit (Invitrogen by Life Technologies) and sequenced by the Australian Genome Research Facility (Sydney, Australia). The purified plasmid DNA was linearized via the restriction enzyme, SpeI (New England Biolabs [Genesearch]) for GlyT2a. Complementary RNAs were synthesized using the mMESAGE mMACHINE T7 kit (Ambion).
All work involving the use of animals was performed in accordance with the Australian Code of Practice for the Care and Use of Animals for Scientific Purposes. […] Stage V oocytes were isolated from the lobe via digestion with 2 mg ml^−1 collagenase A (Boehringer) at 26 °C for 1 h, and 20 ng of cRNA encoding GlyT2 was injected into each oocyte cytoplasm (Drummond Nanoinject; Drummond Scientific Co). The oocytes were then stored in frog Ringer's solution (96 mM NaCl, 2 mM KCl, 1 mM MgCl2, 1.8 mM CaCl2, 5 mM Hepes, pH 7.5), which was supplemented with 2.5 mM sodium pyruvate, 0.5 mM theophylline, 50 μg/ml gentamicin and […] tetracycline. The oocytes were stored at 18 °C for 3 to 5 days, until transporter expression was adequate for measurement using the two-electrode voltage clamp technique. Adequate transporter expression was defined as a ≥30 nA current following application of the glycine EC50.
as §1, §2

[3] = cited from earlier work
[4] = test system: rat model of neuropathic pain; conditions: cited from earlier work
GlyT2 Y550L = test system: GlyT2 Y550L; design: method as in PMID 31621581; conditions: mutagenesis data; cited from earlier work
GlyT2 W563L = test system: GlyT2 W563L; design: method as in PMID 31621581; conditions: mutagenesis data; cited from earlier work
[5] = cited from earlier work; remark: listed apart in the source
[6] = biological target: T2, human glycine transporter 2 (GlyT2 or SLC6A5); conditions: cited from earlier work; for GlyT2 inhibitory activity in words: D-configuration head group
GlyT1 [7] = biological target: T1, GlyT1; design: method as in Mostyn et al., 2019 ([6]); conditions: previously published data, ref Mostyn et al., 2019 ([6]), cited from earlier work
GlyT2 = conditions: most potent small molecule GlyT2 inhibitor to date, reference not given; cited from earlier work
[8] = D-Head group stereochemistry, previously published data, ref Mostyn et al., 2019 ([6])
[9] = L-Head group stereochemistry, previously published data, ref Mostyn et al., 2019 ([6])

With `CCCC/C=C\CCCCCCCC(=O)N[C@H](CCCCN)C(=O)O` [C14ω5-D-Lys] the pIC50 (GlyT1 [1]; D-Head group stereochemistry) was less than 5.52, the “% Maximal inhibition” value ([2]; D-Head group stereochemistry) was 79.7 ± 3.6% and the pIC50 ([2]; D-Head group stereochemistry) was 5.86.

In the case of `CCCCC=CCCCCCCCC(=O)NC(CCCCN)C(=O)O` [C14ω5-L-Lys], the pIC50 (GlyT1 [1]; L-Head group stereochemistry) was less than 5.52, the “% Maximal inhibition” value ([2]; L-Head group stereochemistry) was 96.2 ± 7.3% and the pIC50 ([2]; L-Head group stereochemistry) was 6.15.

For `CCC=CCCCCCCCCCCCC(=O)NC(CCCCN)C(=O)O` [C16ω3-D-Lys], the pIC50 (GlyT1 [1]; D-Head group stereochemistry) was less than 5.52, the “% Maximal inhibition” value ([2]; D-Head group stereochemistry) was 91.8 ± 8.6% and the pIC50 ([2]; D-Head group stereochemistry) was 6.16. The “Fold less potent than the corresponding L-isomer” value [2] was 65 fold.

With `CCC=CCCCCCCCCCCCC(=O)NC(CCCCN)C(=O)O` [C16ω3-L-Lys] the pIC50 (GlyT1 [1]; L-Head group stereochemistry) was less than 5.52, the “% Maximal inhibition” value ([2]; L-Head group stereochemistry) was 94.9 ± 1.6% and the pIC50 ([2]; L-Head group stereochemistry) was 7.97.

In the case of `CCCCCC/C=C\CCCCCCCC(=O)N[C@H](CCCCN)C(=O)O` [C16ω7-D-Lys], the pIC50 (GlyT1 [1]; D-Head group stereochemistry) was less than 5.52, the “% Maximal inhibition” value ([2]; D-Head group stereochemistry) was 96.2 ± 2.1% and the pIC50 ([2]; D-Head group stereochemistry) was 6.22. For the same compound, the “Fold reduced potency relative to C18ω9-D-Lys” value ([2]; GlyT2 IC50) was 12 fold and the “Fold less potent than the corresponding L-isomer” value [2] was “ninefold”.

For `CCCCCCC=CCCCCCCCC(=O)NC(CCCCN)C(=O)O` [C16ω7-L-Lys], the pIC50 (GlyT1 [1]; L-Head group stereochemistry) was less than 5.52, the “% Maximal inhibition” value ([2]; L-Head group stereochemistry) was 90.2 ± 2.1% and the pIC50 ([2]; L-Head group stereochemistry) was 7.18.

With `CCCCC=CCCCCCCCCCCCC(=O)NC(CCCCN)C(=O)O` [C18ω5-D-Lys] the pIC50 (GlyT1 [1]; D-Head group stereochemistry) was less than 5.52, the “% Maximal inhibition” value ([2]; D-Head group stereochemistry) was 87.6 ± 3.7% and the pIC50 ([2]; D-Head group stereochemistry) was 7.19.

In the case of `CCCCC=CCCCCCCCCCCCC(=O)NC(CCCCN)C(=O)O` [C18ω5-L-Lys], the pIC50 (GlyT1 [1]; L-Head group stereochemistry) was less than 5.52, the “% Maximal inhibition” value ([2]; L-Head group stereochemistry) was 81.3 ± 5.1% and the pIC50 ([2]; L-Head group stereochemistry) was 7.17.

For `CCCCCCCC/C=C\CCCCCCCC(=O)N[C@H](CCCCN)C(=O)O` [C18ω9-D-Lys, oleoyl D-lysine], the Blood-brain barrier permeability [3] is listed as “blood–brain barrier permeable”, the Analgesia [4] is listed as “produces analgesia” and the Side effects [4] is listed as “minimal side effects”. The “Inhibition of GlyT2 Y550L mutant” value (GlyT2 Y550L) was “not inhibited”, the “Inhibition of GlyT2 W563L mutant” value (GlyT2 W563L) was “not inhibited” and the Metabolic stability [5] was “metabolically stable”. For the same compound, the “% Maximal inhibition” value [6, 8] was 91.0 ^a %, the pIC50 [6, 8] was 7.32 and the “GlyT2 inhibitory activity in words” value [6] was “retains potency”. For the same compound, the pIC50 (GlyT1 [7]; D-Head group stereochemistry) was less than 5.52.

For `CCCCCCCCC=CCCCCCCCC(=O)NC(Cc1c[nH]c2ccccc12)C(=O)O` [C18ω9-D-Trp], the “% Maximal inhibition” value [6, 8] is listed as 14.2 ^a %, the IC50 ([6]; D-Head group stereochemistry, μM, previously published data, ref Mostyn et al., 2019 ([6])) is listed as greater than 10 µM and the “GlyT2 inhibitory activity in words” value [6] is listed as “inactive”. For the same compound, the pIC50 (GlyT1 [7]; D-Head group stereochemistry) was less than 5.00.

For `CCCCCCCC/C=C\CCCCCCCC(=O)N[C@@H](CCCCN)C(=O)O` [C18ω9-L-Lys, oleoyl-L-lysine], the “Inhibition of GlyT2 Y550L mutant” value (GlyT2 Y550L) is given as “not inhibited”, the “Inhibition of GlyT2 W563L mutant” value (GlyT2 W563L) is given as “not inhibited” and the “% Maximal inhibition” value [6, 9] is given as 86.8 ^a %. The pIC50 [6, 9] was 7.59 and the pIC50 (GlyT1 [7]; L-Head group stereochemistry) was less than 5.52.

In the case of `CCCCCCCCC=CCCCCCCCC(=O)NC(Cc1c[nH]c2ccccc12)C(=O)O` [C18ω9-L-Trp], the “% Maximal inhibition” value [6, 9] is listed as 86.2 ^a %, the pIC50 [6, 9] is listed as 7.26 and the pIC50 (GlyT1 [7]; L-Head group stereochemistry) is listed as less than 5.00.

For `COc1cc(C(=O)NCC2(N(C)C)CCCC2)cc(OC)c1OCc1ccccc1` [ORG25543], the pIC50 (GlyT2) is listed as 7.80.

From publication PMC7949037, “The allosteric inhibition of glycine transporter 2 by bioactive lipid analgesics is controlled by penetration into a deep lipid cavity” (The Journal of Biological Chemistry, 2021)
